{"source": "patent US12019083B2", "about": "“Compound distribution in microfluidic devices” (EMULATE, Inc., priority 2019, dated 2024)", "key": {"[1]": {"experiment": "Time-dependent material absorption test in vials, SEBS", "format": "physicochemical", "details": "for absorption into SEBS: recovered concentration compared to dosing concentration", "protocol": "(§1) A method for ascertaining the absorption of a specific small-molecule into a polymer was developed. The output of this method are the fundamental parameters that fully define the absorption of a specific compound into the material tested; specifically, the diffusivity and partition coefficient are ascertained. […] The steps for ascertaining this absorption is as follows: • 1. Dissolve the small molecule in an aqueous phase (medium) and incubate the solution (30) with the tested material (31), such as in a vial (29). The incubation should be long enough so that diffusion is not limiting absorption and the transport into the material is at equilibrium with the transport of the compound out of the material and into the aqueous phase. • 2. Sample media from the vials at a number of time points. • 3. Measure the concentration of the small molecule remaining in the aqueous phase (30) using a mass spectrometer, plate reader, etc. from the media sampled. • 4. Curve-fit the measured data to quantify the absorption and diffusion parameters.\n(§2) Each experiment includes a number of controls and test conditions. Using multiple controls and test conditions allows absorption to the vial and well-plate to be characterized, as well as absorption versus adsorption to the tested material, as well as yielding the time-dependent nature of absorption into the material. […] The goals of the experiments are to directly quantify partitioning of the compound, or compound loss at equilibrium (kinetics), and to directly quantify diffusion of the compound, or time-dependent compound loss (dynamics).\n(§3) Single time point experiments are only capable of extracting kinetics, not dynamics. Time-dependent studies capture not only equilibrium endpoints (K), but also time-dependent changes/dynamics (D). One-dimensional computational models are used to fit experimental results of time-dependent studies. […] Once the particular curve is known, the parameters which defined that curve are taken as the fundamental parameters defining the material-compound absorptive interaction."}, "[2]": {"experiment": "Time-dependent material absorption test in vials, PDMS", "format": "physicochemical", "details": "for absorption into PDMS: recovered concentration compared to dosing concentration", "protocol": "as §1, §2, §3"}, "[3]": {"details": "recovered concentration compared to dosing concentration", "from_the_text": "Curve-fit the measured data to quantify the absorption and diffusion parameters."}, "[4]": {"experiment": "Flow absorption study in PDMS microfluidic device / compound distribution kit", "format": "physicochemical", "from_the_text": "An exemplary method may follow the method of an intended experiment or study. As an example, the compound distribution kit may be used with microfluidic devices. An exemplary method for use with microfluidic devices may follow an intended study method with the following changes: no coatings, no cell seeding, and reduced number of compound doses. In one embodiment, there may not be a need to perform coatings on the microfluidic device that are related to biological aspects of the experiment. Some coatings, such as those that change the chemistry of the microfluidic device material makeup, may need to be done, especially if they may affect compound absorbency. It one embodiment, coatings are done with the compound distribution kit at the discretion of the user. In one embodiment, cell seeding is not needed. In one embodiment, if the intended-study protocol compares several concentrations of a test compound, the absorption control experiment need only be run for one of these concentrations. In one embodiment, it is recommended to use the highest compound concentration planned for the intended study, in order to maximize quantification (e.g. LCMS) sensitivity. However, a lower concentration of test compound may be selected if there are concerns about the compound's solubility limits or it crashing out of solution at the higher concentration. Crashing out of solution is when the concentration of a solute in a solution reaches a point where the solute precipitates. In one embodiment, the compound is dosed for the same duration, at the same flow rate, in the same microfluidic channel(s) as per the intended protocol, experiment or study. That is, if the intended study specifies dosing only in a first channel, with no compound in a second channel, then the same method would be applied during the use of the compound distribution kit. In one embodiment, media and solution should be the same during use of the compound distribution kit as in the intended study. In one embodiment, the same media or solution, as well as any additives or supplements, as medium composition and additives can interact with test compounds (e.g. protein binding). In one embodiment, media or solutions should also be equilibrated in the same manner, such as degassing and preheating. In one embodiment, effluent samples taken during use of the compound distribution kit should be collected at the same time as the intended study. Compound distribution can be a highly dynamic process, and as such matching time points may be able to ensure that the results of the compound distribution kit correspond closely to the intended study. […]"}, "[5]": {"experiment": "Second round absorption study: Parylene coated SEBS and E140 compared with glass, COP and control solution", "format": "physicochemical", "from_the_text": "Two quantitative studies were run on Parylene coated materials in order to assess its effectiveness in minimizing small molecule absorbency. In the first study Parylene coated SEBS and Parylene coated PDMS were both exposed to Rhodamine B and Coumarin. In the second study the absorption of Parylene coated SEBS and Parylene coated […] were compared to the absorption of known low-absorbing materials, such as glass and COP. In the second round of absorption studies, after parylene-coating process optimization, the absorption of Parylene coated SEBS and Parylene coated […] were compared to both the absorption of known low-absorbing materials, such as glass and COP, and a control solution of the drug not in contact with a material. The coated materials were exposed to a solution carrying a known concentration of the drug, Coumarin. The solution was tested three times to quantify the remaining concentration of the Coumarin, before exposure to the material, at 22 hours and at 92 hours. […] SEBS absorbed more of the compound than […]."}, "[6]": {"experiment": "First round absorption study on Parylene coated SEBS and PDMS gaskets (plate reader)", "format": "physicochemical", "details": "coating thickness 2 μm and 8 μm; exposure 0, 14, 40 and 72 hours", "from_the_text": "Two quantitative studies were run on Parylene coated materials in order to assess its effectiveness in minimizing small molecule absorbency. In the first study Parylene coated SEBS and Parylene coated PDMS were both exposed to Rhodamine B and Coumarin. In the second study the absorption of Parylene coated SEBS and Parylene coated E140 were compared to the absorption of known low-absorbing materials, such as glass and COP.\nIn the first round of absorption studies, SEBS and PDMS gaskets were coated with Parylene at two thicknesses: 2 μm and 8 μm. Parylene-coated gaskets were exposed to Rhodamine B and Coumarin for 0, 14, 40 and 72 hours. The remaining concentration of Rhodamine B and Coumarin in the exposure solution were measured on a plate reader. Each condition was tested on two gaskets. Limited replicates were available due to the number of conditions run. This “shotgun approach” was used in order to try many coating conditions and quickly determine the best options. […] FIG. 33B depicts the fraction of Rhodamine B recovered from the solutions for coatings of varying thickness on two materials known to absorb. […] One observation from the experiment was that the Parylene may crack, leading to gasket absorption. Another observation from the experiment was that Parylene adhesion to the PDMS and SEBS was poor, resulting in easy removal of Parylene. […]"}, "[7]": {"experiment": "Flow study of microfluidic device in fluidic communication with perfusion manifold assembly", "format": "physicochemical", "from_the_text": "FIGS. 98A and 98B show a comparison between a computational (COMSOL) model results and actual experimental results for cellular exposure ranges of the small-molecule compound Coumarin. […] For this experiment the microfluidic device was in fluidic communication with a perfusion manifold assembly. […] FIGS. 99A and 99B show a comparison between a computational (COMSOL) model results and actual experimental results for cellular exposure ranges of the small-molecule compound Coumarin. […] For this experiment the microfluidic device was in fluidic communication with a perfusion manifold assembly."}, "[8]": {"experiment": "Fluorescent imaging of Parylene-coated gaskets exposed to Rhodamine B", "format": "physicochemical", "from_the_text": "Parylene-coated PDMS gaskets were exposed to the fluorescent molecule Rhodamine B and fluorescently imaged. […] However, the absorption is primarily localized to areas with sharp corners. […] Parylene-coated SEBS gaskets were exposed to the fluorescent molecule Rhodamine B and fluorescently imaged as well. […] However, the absorption is primarily localized to areas with sharp corners. Some absorption can be seen inside of the via, but it was minimal, difficult to visualize, and quite possibly an optical artifact unrelated to absorption."}, "[9]": {"experiment": "Fluorescent molecule absorption in perfusion manifold assemblies under flow", "format": "physicochemical", "details": "30 μL/hr for 38 hours", "procedure": "Fluorescent molecule Rhodamine B (a fluorescent molecule that is also moderately absorbing into PDMS and SEBS) was dissolved in a buffer, flowed through a perfusion manifold assembly (14) and absorbing microfluidic device (12) fabricated out of PDMS at 30 μL/hr for 38 hours on a culture module. The perfusion manifold assemblies (14) were rinsed with buffer not containing the fluorescent molecule at 200 μL/hr for an hour before the start of the experiment.\nFollowing the experiment, the perfusion manifold assemblies (14) were disassembled and the vias (35) of the capping, gasketing and backplane assembly or fluidic layer assembly (34), as well as the perfusion manifold assembly (14) resistors (27), were imaged with fluorescent microscopy. FIG. 25A depicts the resulting fluorescence in the fluidic layer assembly (34) of an absorbing perfusion manifold assembly (14) comprising a combined gasketing and capping layer (26). FIG. 25B depicts the resulting fluorescence on one aspect the invention described herein, a low-absorbing perfusion manifold assembly comprising both a low-absorbing capping and low-absorbing gasketing layer. In the embodiment of the perfusion manifold assembly (14) used in the experiment, the capping layer was fabricated from COP and the gasketing layer was fabricated out of SEBS coated with Parylene. Bright white colors in FIGS. 25A and 25B correlate to greater degree of absorption of the fluorescent molecule Rhodamine B."}, "[10]": {"details": "tested before exposure, at 22 hours and at 92 hours"}}, "note": "Entries after “also recorded” stand apart in the source; their conditions may differ."}
{"smiles": "CCc1cccc2cc(C(O)CNC(C)(C)C)oc12", "note": "(stereo not shown) [Bufuralol]", "values": [{"measurement": "SEBS partition value (K)", "setting": "[1]", "value": 4.77}, {"measurement": "absorption into SEBS", "setting": "[1]", "value": "absorbed somewhat"}, {"measurement": "PDMS partition value (K)", "setting": "[2]", "value": "greater than 216"}, {"measurement": "recovered concentration from the PDMS experiments", "setting": "[2]; LCMS", "value": "below the lower limit of detection"}, {"measurement": "absorption into PDMS", "setting": "[2]", "value": "absorbed almost entirely"}, {"measurement": "absorption into glass, polypropylene, polystyrene or COP", "setting": "[3]", "value": "did not absorb significantly"}]}
{"smiles": "C=C(C)[C@@H]1CCC(C)=C[C@H]1c1c(O)cc(CCCCC)cc1O", "note": "[CBD, cannabidiol]", "values": [{"measurement": "measured outlet concentrations of the compound", "setting": "[4]; microfluidic device fabricated entirely from PDMS", "value": 0}, {"measurement": "absorption or loss of compound in microfluidic device fabricated from entirely PDMS", "setting": "[4]; several flow rates, even at the highest flow rate", "value": "complete/total absorption or loss of compound"}]}
{"smiles": "O=c1ccc2ccccc2o1", "note": "[Coumarin]", "values": [{"measurement": "effect of flow rate on absorption into PDMS", "setting": "[4]; 60 μL/hr versus 150 μL/hr, bottom channel sampled", "value": "less compound is absorbed into PDMS at faster flow rates"}, {"measurement": "absorption into materials coated with Parylene", "setting": "[5]; Parylene coated SEBS and E140, 22 and 92 hours", "value": "do not absorb significant amounts"}, {"measurement": "absorption into glass and COP compared to control solution", "setting": "[5]; [10]", "value": "did not absorb"}, {"measurement": "absorption into uncoated SEBS and E140", "setting": "[5]; [10]", "value": "both absorb; also recorded: SEBS absorbed more of the compound than E140"}, {"measurement": "absorption by Parylene coated PDMS and SEBS", "setting": "[6]", "value": "some Coumarin was absorbed"}, {"measurement": "absorption into SEBS of the perfusion manifold assembly", "setting": "[7]", "value": "especially susceptible to absorption"}]}
{"smiles": "CN1C(=O)CN=C(c2ccccc2)c2cc(Cl)ccc21", "note": "[Diazepam]", "values": [{"measurement": "fraction of Diazepam absorbed by PDMS", "setting": "[2]; by hour 12 of contact with PDMS", "value": "⅔ and two thirds"}]}
{"smiles": "Cc1ncc2n1-c1ccc(Cl)cc1C(c1ccccc1F)=NC2", "note": "[Midazolam]", "values": [{"measurement": "SEBS partition value (K)", "setting": "[1]", "value": 4.05}, {"measurement": "absorption into SEBS", "setting": "[1]", "value": "absorbed somewhat"}, {"measurement": "PDMS partition value (K)", "setting": "[2]", "value": 201}, {"measurement": "absorption into PDMS", "setting": "[2]", "value": "absorbed significantly"}, {"measurement": "absorption into glass, polypropylene, polystyrene or COP", "setting": "[3]", "value": "did not absorb significantly"}]}
{"smiles": "CCN(CC)c1ccc2c(-c3ccccc3C(=O)O)c3ccc(=[N+](CC)CC)cc-3oc2c1", "note": "[Rhodamine B]", "values": [{"measurement": "absorption in Parylene-coated SEBS gaskets (microscopy)", "setting": "[8]", "value": "some minimal absorption is present"}, {"measurement": "absorption within the microfluidic device ports of Parylene-coated PDMS gaskets", "setting": "[8]; ports leading into the channels", "value": "No absorption was seen"}, {"measurement": "absorption in Parylene-coated PDMS gaskets (microscopy)", "setting": "[8]; whole gasket", "value": "some absorption is present but localized to areas that might not have been fully coated"}, {"measurement": "rate and extent of absorption", "setting": "[4]; flow study outlet concentrations", "value": "lower rate of absorption, but higher extent of absorption"}, {"measurement": "absorption in perfusion manifold assemblies with COP capping layer and Parylene coated SEBS gasketing layer", "setting": "[9]", "value": "did not absorb a significant amount"}, {"measurement": "absorption in perfusion manifold assembly with COP capping layer and non-coated SEBS gasketing layer", "setting": "[9]", "value": "absorbed the fluorescent molecule"}, {"measurement": "absorption in perfusion manifold assembly with combined gasketing and capping layer", "setting": "[9]", "value": "absorbed the fluorescent molecule"}, {"measurement": "absorption in resistors capped with COP", "setting": "[9]", "value": "very little"}, {"measurement": "absorption in resistors capped with SEBS", "setting": "[9]", "value": "relatively high extent"}, {"measurement": "absorption by Parylene coated PDMS and SEBS", "setting": "[6]", "value": "minimal Rhodamine B was absorbed"}]}
{"smiles": "CN(C)CCC=C1c2ccccc2CCc2ccccc21", "note": "[amitriptyline]", "values": [{"measurement": "absorption into PDMS", "setting": "[2]", "value": "absorb into PDMS"}]}
